# Laboratory results: patent US20220389008A1, “4-QUINOLINONE ANTIBACTERIAL COMPOUNDS” (Janssen Sciences Ireland Unlimited Company, priority 2019, published 2022)
# pIC50: −log10 of the molar value. “And” between values parts separate entries of the source, which are not always exact repeats. Equal entries are not always repeated. Where two headings read alike, the source gives them in different places.
# Tests used:
# [1] = tested on: Mycobacterium tuberculosis (strain H37Ra), cyt bd; conditions: Mtb H37Ra; for (i) % OCR after cyt bd inhibitor: test compound 10 μM added after Compound X 0.9 μM; for (ii) % OCR after cccp: test compound 10 μM after Compound X 0.9 μM, then CCCP 1 μM
# [2] = tested on: rCaCh; assay: CVS / cardio tox rCaCh; assay type: binding, rat
# [3] = tested on: rNaCh; assay: CVS / cardio tox rNaCh; assay type: binding, rat; conditions: read-out: Cardio tox rNaCH (IC50)
# [4] = tested on: Mycobacterium tuberculosis strain H37Rv ΔctaE-ΔqcrCAB; assay: microbe, parasite or virus in culture; assay type: cell-based; conditions: 240 h
# [5] = target: hERG (Homo sapiens, UniProt Q12809); assay: CVS / cardio tox hERG (DOF); assay type: binding; conditions: DOF; read-out: Cardio tox hERG(DOF) (IC50)
# hERG, sequence (Q12809 whole entry): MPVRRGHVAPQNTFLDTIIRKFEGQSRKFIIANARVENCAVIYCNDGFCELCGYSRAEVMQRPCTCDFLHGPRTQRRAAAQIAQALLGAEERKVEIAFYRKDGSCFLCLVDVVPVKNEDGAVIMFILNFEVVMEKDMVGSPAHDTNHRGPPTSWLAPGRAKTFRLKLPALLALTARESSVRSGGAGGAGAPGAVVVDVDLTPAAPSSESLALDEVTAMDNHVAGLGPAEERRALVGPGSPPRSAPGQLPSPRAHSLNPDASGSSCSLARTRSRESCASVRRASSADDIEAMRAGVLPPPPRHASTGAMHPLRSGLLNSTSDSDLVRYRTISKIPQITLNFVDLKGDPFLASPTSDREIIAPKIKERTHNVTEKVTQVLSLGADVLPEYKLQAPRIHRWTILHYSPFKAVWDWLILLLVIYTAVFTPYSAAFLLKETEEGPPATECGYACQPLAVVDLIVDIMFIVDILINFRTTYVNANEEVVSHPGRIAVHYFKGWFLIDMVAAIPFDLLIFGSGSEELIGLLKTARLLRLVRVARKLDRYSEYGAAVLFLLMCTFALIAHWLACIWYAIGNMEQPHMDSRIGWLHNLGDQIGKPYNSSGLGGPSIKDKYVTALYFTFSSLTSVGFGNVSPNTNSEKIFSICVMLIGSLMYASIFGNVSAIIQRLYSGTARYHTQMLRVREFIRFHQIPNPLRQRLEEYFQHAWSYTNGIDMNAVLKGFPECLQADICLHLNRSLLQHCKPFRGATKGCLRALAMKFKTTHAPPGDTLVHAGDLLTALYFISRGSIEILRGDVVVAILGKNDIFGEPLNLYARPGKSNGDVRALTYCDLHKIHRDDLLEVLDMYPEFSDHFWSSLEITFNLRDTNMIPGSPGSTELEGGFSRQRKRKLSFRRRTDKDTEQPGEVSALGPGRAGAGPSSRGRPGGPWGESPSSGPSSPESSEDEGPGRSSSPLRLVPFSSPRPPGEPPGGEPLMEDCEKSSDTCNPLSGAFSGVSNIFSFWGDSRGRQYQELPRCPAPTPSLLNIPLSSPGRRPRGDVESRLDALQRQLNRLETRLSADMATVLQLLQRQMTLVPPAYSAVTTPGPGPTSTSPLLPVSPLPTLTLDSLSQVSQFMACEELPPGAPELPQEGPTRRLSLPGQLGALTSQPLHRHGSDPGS
# [6] = tested on: Mitochondrial toxicity (Glu/Gal); assay: Mitochondrial toxicity (Glu/Gal) assay; assay type: cell-based; set-up: key to Score: “negative” means that in the test, it was found to have low mitotoxicity (and hence no mitotoxicity alerts); “positive” means that there were some mitotoxicity alerts; “inconclusive” means that no accurate conclusion could be drawn; conditions: for Score: mitotoxicity score; for Δ IC50,glu/IC50,gal: ratio glu/gal
# Description: The compounds of the invention/examples may have advantages associated with in vitro potency, kill kinetics (i.e. bactericidal effect) in vitro, PK properties, food effect, safety/toxicity (including liver toxicity, coagulation, 5-LO oxygenase), metabolic stability, Ames II negativity, MNT negativity, aqueous based solubility (and ability to formulate) and/or cardiovascular effect e.g. on animals (e.g. anesthetized guinea pig). The data below that was generated/calculated may be obtained using standard methods/assays, for instance that are available in the literature or which may be performed by a supplier (e.g. Microsomal Stability Assay—Cyprotex, Mitochondrial toxicity (Glu/Gal) assay—Cyprotex, as well as literature CYP cocktail inhibition assays).
# [7] = galactose medium, read-out: IC50, gal
# [8] = glucose medium, read-out: IC50, glu
Structure (SMILES),(i) % OCR after cyt bd inhibitor [1],(ii) % OCR after cccp [1],Cardio tox rCaCh IC50 (µM) [2],pIC50 [3],pIC50 [4],pIC50 [5],"pIC50 [6, 7]","pIC50 [6, 8]",Score [6],"Δ IC50,glu/IC50,gal [6]"
Cc1c(-c2nc3ccc(-c4ccc(C(F)(F)F)cc4)cn3n2)[nH]c2ccccc2c1=O [Compound 4],32.75%,40.05%,> 10,5.64,5.90,< 5.00,4.30,4.30,negative,[x]0
Cc1c(-c2cc3ccc(-c4ccc(OC(F)(F)F)cc4)cn3n2)[nH]c2ccccc2c1=O [Compound 5],43.48%,49.26%,">10, >10, >10",< 5.00,5.90,< 5.00,4.34,3.97,inconclusive,[x]2.32
Cc1c(-c2nc3ccc(-c4cccc(F)c4)cn3n2)[nH]c2ccccc2c1=O [Compound 12],62.09%,79.37%,> 10,< 5.00,6.05,< 5.52,4.00,4.00,negative,[x]0
Cc1c(-c2nc3ccc(-c4nc(C(F)(F)F)cs4)cn3n2)[nH]c2ccccc2c1=O [Compound 18],76.01%,98.7%,> 10,5.82,5.73,< 5.00,4.80,4.63,negative,[x]1.48
Cc1c(-c2nc3ccc(C(F)(F)F)cn3n2)[nH]c2ccccc2c1=O [Compound 19],99.4%,100.5%,">10, >10, >10",< 5.00,–,< 5.00,4.00,4.00,negative,[x]0
Cc1c(-c2cc3ccc(-c4ccc(OC(F)(F)F)cc4)cn3c2)[nH]c2ccccc2c1=O [Compound 22],82.7%,109.8%,> 10,5.16,5.43,< 5.00,5.00,3.86,positive,>13.3
Cc1c(-c2cc3cc(-c4ccc(OC(F)(F)F)cc4)ccn3c2)[nH]c2ccccc2c1=O [Compound 25],65.2%,114.3%,">10, >10, >10",< 5.00,5.51,< 5.00,5.00,3.70,positive,>20.2
Cc1c(-c2nc3ccc(-c4ccc(OC(F)(F)F)nc4)cn3n2)[nH]c2ccccc2c1=O [Compound 26],71%,116.7%,">10, >10, >10",< 5.00,5.11,< 5.00,5.02,4.88,negative,[x]1.39
Cc1c(-c2cn3ccc(Oc4ccc(OC(F)(F)F)cc4)cc3n2)[nH]c2ccccc2c1=O [Compound 29],64.6%,118.5%,3.3,5.64,–,~5.04,4.27,4.10,negative,1.5
Cc1c(-c2nc3ccc(F)cn3n2)[nH]c2ccccc2c1=O [Compound 33],61.2%,123.6%,">10, >10, >10",< 5.00,< 4.00,< 5.00,4.00,4.00,negative,[x]0
Cc1c(-c2cn3cc(Oc4ccc(OC(F)(F)F)cc4)ccc3n2)[nH]c2ccccc2c1=O [Compound 44],76%,138.6%,3.8,5.92,5.01,5.82,4.23,4.32,negative,0.8
Cc1c(-c2cn3ccc(Cc4ccc(OC(F)(F)F)cc4)cc3n2)[nH]c2ccccc2c1=O [Compound 52],82.2%,148.1%,~1.9,5.13,< 4.00,< 5.00,3.97,3.87,negative,1.2
Cc1c(-c2nc3ccc(Br)cn3n2)[nH]c2ccccc2c1=O [Compound 55],109.2%,148.3%,">10, >10, >10",< 5.00,4.44,< 5.00,3.70 and 4.00,3.70 and 4.00,negative,[x]0;[x]0
Cc1c(-c2nc3ccc(-c4cn(CC(F)(F)F)nn4)cn3n2)[nH]c2ccccc2c1=O [Compound 58],139.74%,153.33%,">10, >10, >10",< 5.00,< 4.60,< 5.00,4.00,4.00,negative,[x]0
Cc1c(-c2cn3cc(Cc4ccc(OC(F)(F)F)cc4)ccc3n2)[nH]c2ccccc2c1=O [Compound 63],85.8%,157.9%,> 3.0,5.55,4.12,< 5.00,4.01,3.70,inconclusive,>1.7
COc1cc2[nH]c(-c3nc4ccc(-c5ccc(OC(F)(F)F)cc5)cn4n3)c(C)c(=O)c2cc1OC [Compound 70],102.2%,165.65%,">10, >10, >10",< 5.00,< 4.30,< 5.00,4.57,4.00,inconclusive,[x]3.69
COc1ccc(-c2ccc3nc(-c4[nH]c5ccccc5c(=O)c4C)nn3c2)cc1 [Compound 90],"25,77%","30,69%",–,–,5.83,–,3.70,3.70,negative,[x]0
Cc1cc(-c2ccc3nc(-c4[nH]c5ccccc5c(=O)c4C)nn3c2)ccc1F [Compound 110],"40,37%","51,51%",–,–,5.42,–,3.70,3.70,negative,[x]0
Cc1ccc(-c2ccc3nc(-c4[nH]c5ccccc5c(=O)c4C)nn3c2)cc1F [Compound 124],"31,72%","37,02%",–,–,5.77,–,3.70,3.70,negative,[x]0
COc1cc(F)cc(-c2ccc3nc(-c4[nH]c5ccccc5c(=O)c4C)nn3c2)c1 [Compound 125],"45,66%","64,44%",–,–,6.18,–,3.70,3.70,negative,[x]0
Cc1c(-c2nc3ccc(-c4cc(F)cc(C(F)(F)F)c4)cn3n2)[nH]c2ccccc2c1=O [Compound 126],"43,71%","51,74%",–,–,4.96,–,4.81,4.60,inconclusive,[x]1.61
Cc1c(-c2nc3ccc(-c4cccc(CC(F)(F)F)c4)cn3n2)[nH]c2ccccc2c1=O [Compound 127],"49,62%","65,3%",–,–,5.49,–,4.80,4.74,negative,[x]1.14
